Assay results as given in paper PMC9428149, “Tackling recalcitrant Pseudomonas aeruginosa infections in critical illness via anti-virulence monotherapy” (Nature Communications, 2022).
Converted amounts (≈) assume the structure as drawn. Read-outs that look alike come from different tables or passages of the source.

Legend:
MvfR protein (MvfRC87) = molecular target: T1, MvfR protein (MvfRC87) (Pseudomonas aeruginosa, UniProt Q9I4X0); type: binding; conditions: SPR
T1 construct: The MvfRC87 protein purified as in Xiao et. al., 2006; made in house
T1 sequence (Q9I4X0 87-332): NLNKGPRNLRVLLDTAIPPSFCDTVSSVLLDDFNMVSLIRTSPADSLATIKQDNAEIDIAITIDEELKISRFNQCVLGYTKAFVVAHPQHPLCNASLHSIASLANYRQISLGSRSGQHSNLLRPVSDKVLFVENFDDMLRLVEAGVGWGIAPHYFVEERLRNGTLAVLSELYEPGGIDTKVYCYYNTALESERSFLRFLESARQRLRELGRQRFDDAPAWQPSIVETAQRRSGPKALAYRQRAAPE
Description: The selected compounds were tested for their ability to bind to MvfR. Target validation was carried out by using surface plasmon resonance (SPR). The MvfRC87 protein purified as in Xiao et. al., 2006[33] was covalently immobilized on a CM7 Series S sensor chip using an amine coupling reagent kit (GE Healthcare) at the range level of 3000 to 5000 response units (RU). RU was analyzed by Biacore T200 evaluation software 2.0 (GE Healthcare). The relative response units (RUs) 5 seconds before the end of the association were extracted from the double-reference-corrected sensor grams at different concentrations. These responses were plotted against their respective concentrations for MvfR inhibitor alone and in the presence of native MvfR ligand PQS and compared to the calculated responses for the mixture expected for different binding sites.

[1] = system: mvfR mutant constitutively expressing the pqsABCDE operon; type: cell-based; conditions: Pseudomonas aeruginosa, control about 100, single replicates (Figure 4a)
[2] = system: PA14 isogenic mutant ΔmvfR AT/P cells; assay: AT/P cell formation in ΔmvfR mutant (off-target); conditions: Pseudomonas aeruginosa, PA14, 24 h, read-out: AT/P cell formation, ΔmvfR + compound; PA14 about 100; single replicates (Figure 4b)
Description: Cells were grown in the presence of 10 μg mL^−1 meropenem, with or without 10 µM of the compounds for 24 h. Values were normalized to cells grown for 4 h in the absence of antibiotics and compounds. The ∆mvfR cells grown with antibiotics and vehicles were considered control, and the percentage values were calculated compared to control. c Biofilm formation of mutant ∆mvfR cells with or without compound. […] The number of biological replicates for each compound and strain is depicted in the graph. The error bars denote ±SEM.
The AT/P cell formation assay was performed according to the method previously described in Starkey et al., 2014 (persister cell assay). The over-day culture was incubated at 37 °C with shaking at 200 rpm until the culture OD600nm was 3.0. The culture was then diluted at 1:100 and grown in the same conditions for 4 h. After 4 h, 200 µL were collected, and serial dilutions were plated on LB agar plates for CFU quantification (as normalizers). The remainder of the culture was treated with meropenem to a final concentration of 100 × MIC (Minimum Inhibitory Concentration; 10 mg L^−1) and compounds at a final concentration of 10 µM. After 24 h, culture aliquots were 10-fold serially diluted in LB broth and plated on LB agar for CFU quantification. The AT/P fraction was determined as the normalizers (pre-antibiotic) ratio divided by the AT/P fraction (24 h post-antibiotic)[22].

[3] = system: 16 MDR P. aeruginosa clinical isolates; assay: Pyocyanin production in MDR clinical isolates; conditions: Pseudomonas aeruginosa, 18 h, Control about 100, replicates
Description: The over-day culture was grown to OD600nm 1.5., diluted again at 1:10,000 in 5 mL LB and incubated with 10 μM of the test compound or the vehicle control for 18 hours at 37 °C and 200 rpm in an incubator shaker. After 18 h, 1 mL of culture was centrifuged for 2 min at 20.000 x g. The supernatant was transferred to a new tube, 200 μL of this were loaded in a flat-bottom 96-well plate, and the pyocyanin levels were quantified by measuring at OD690nm in the infinite F200 plate reader using the Magellan software (Tecan, Switzerland). The same procedure was also followed for the pyocyanin production assessment for all the P. aeruginosa clinical isolates assessed in this study. The percent of pyocyanin was calculated compared to the PA14 culture grown in the absence of compounds.
Pyocyanin production was measured in 16 P.
aeruginosa clinical isolates 18hr post-growth in the presence or absence of 10 µM of each NAM
compound. The percent of pyocyanin production was calculated by comparing the same strain grown
in the presence of the vehicle control. b.

[4] = system: pyocyanin production in PA14; assay: Pyocyanin production assay; conditions: Pseudomonas aeruginosa
[5] = system: MvfR-regulated small molecules in PA14; assay: Production of HAQs, 2-AA, DHQ and AA in PA14 cultures (LC-MS); conditions: Pseudomonas aeruginosa
PA14 AT/P cells = assay: AT/P cells formation assay in PA14; type: cell-based, Pseudomonas aeruginosa; conditions: Pseudomonas aeruginosa, PA14, 24 h, read-out: inhibition of AT/P cells formation
[6] = Solubility in iPBS pH 7.4 by HPLC; type: physicochemical; conditions: isotonic phosphate buffer (iPBS), aqueous with cosolvent or surfactant or cyclodextrin, kinetic from dmso stock; iPBS pH 7.4, HPLC; read-out: Solubility (M) in PBS
Description: Solubility of the 10 mM compounds dissolved in DMSO was tested in the isotonic phosphate buffer (iPBS) at pH 7.4 using High-Performance Liquid Chromatography (HPLC). For the preparation of iPBS phosphate-buffered saline tab (Sigma-Aldrich 08057-12Tab-F) is dissolved in 500 mL of deionized water and the final composition of the solution contains 10 mM PBS, 2.7 mM KCl, 140 mM NaCl and 0.05% Tween. A total 10 µL of the compound from a 10 mM stock solution in DMSO was added to the vial, and 190 µL of buffer was added to each vial and mixed with shaking at room temperature for 4 h. Thereafter the samples were filtered, and 160 µL of the sample was mixed with 40 µL of DMSO for the final injection. Ibuprofen (high solubility) and Progesterone (low Solubility) were used as standard compounds. Ammonium Acetate aqueous solution (50 mM, pH 7.4) and the acetonitrile were used as mobile phases A and B, respectively. The measurement of concentration was achieved by comparing of UV absorbance of the sample solution and the known standard solution following an HPLC separation using a generic fast gradient method. The solubility of each compound is expressed by the ratio of compound amount in the sample test solution to the amount of compound in the standard solution.

[7] = system: pqsA promoter (PA14 PpqsA-GFPASV); assay: pqsA-GFP reporter expression; type: cell-based, Pseudomonas aeruginosa; conditions: Pseudomonas aeruginosa

N#Cc1ccc(NC(=O)CC(=O)Nc2ccc(Br)cc2)cc1 [D42]
Response Unit (RU) (MvfR protein (MvfRC87); Concentration 1.00E-05 M): 30 RU | Response Unit (RU) (MvfR protein (MvfRC87); Concentration 1.00E-06 M): 23 RU | Response Unit (RU) (MvfR protein (MvfRC87); Concentration 1.00E-07 M): 10.1 RU | Response Unit (RU) (MvfR protein (MvfRC87); Concentration 1.00E-08 M): 2.1 RU | Response Unit (RU) (MvfR protein (MvfRC87); Concentration 3.16E-06 M): 27.4 RU | Response Unit (RU) (MvfR protein (MvfRC87); Concentration 3.16E-07 M): 16.8 RU | Response Unit (RU) (MvfR protein (MvfRC87); Concentration 3.16E-08 M): 5 RU | activity at 50 µM ([1]; read-out: HQNO, ΔmvfR-pqsABCD strain): 90.7% | activity at 50 µM ([1]; read-out: PQS, ΔmvfR-pqsABCD strain): 98.9% | activity at 10 µM [2]: 25.1% | activity at 10 µM ([3]; read-out: Pyocyanin production relative to Control, clinical isolate LGR-4325): 15.2% | activity at 10 µM ([3]; read-out: Pyocyanin production relative to Control, clinical isolate LGR-4326): 9.87% | activity at 10 µM ([3]; read-out: Pyocyanin production relative to Control, clinical isolate LGR-4327): 23.8% | activity at 10 µM ([3]; read-out: Pyocyanin production relative to Control, clinical isolate LGR-4328): 15.7% | activity at 10 µM ([3]; read-out: Pyocyanin production relative to Control, clinical isolate LGR-4330): 16.4% | activity at 10 µM ([3]; read-out: Pyocyanin production relative to Control, clinical isolate LGR-4331 (first section, r117)): 17.2% | activity at 10 µM ([3]; read-out: Pyocyanin production relative to Control, clinical isolate LGR-4331 (second section, r140)): 10% | activity at 10 µM ([3]; read-out: Pyocyanin production relative to Control, clinical isolate LGR-4333): 11.6% | activity at 10 µM ([3]; read-out: Pyocyanin production relative to Control, clinical isolate LGR-4343): 15.3% | activity at 10 µM ([3]; read-out: Pyocyanin production relative to Control, clinical isolate LGR-4344): 19.4% | activity at 10 µM ([3]; read-out: Pyocyanin production relative to Control, clinical isolate LGR-4348): 11.9% | activity at 10 µM ([3]; read-out: Pyocyanin production relative to Control, clinical isolate LGR-4356): 16.3% | activity at 10 µM ([3]; read-out: Pyocyanin production relative to Control, clinical isolate LGR-4362): 26.2% | activity at 10 µM ([3]; read-out: Pyocyanin production relative to Control, clinical isolate LGR-4363): 20.8% | activity at 10 µM ([3]; read-out: Pyocyanin production relative to Control, clinical isolate LGR-4364 (first section, r326)): 16.1% | activity at 10 µM ([3]; read-out: Pyocyanin production relative to Control, clinical isolate LGR-4364 (second section, r349)): 16.4% | activity at 50 µM ([4]; PA14, 18 h, read-out: % Production Pyocyanin): 6% | IC50 ([4]; PA14, read-out: IC50 pyocyanin production): 1.34 µM | activity at 50 µM ([5]; PA14, read-out: % Production 2-AA): 6% | activity at 50 µM ([5]; PA14, read-out: % Production AA): 701% | activity at 50 µM ([5]; PA14, read-out: % Production DHQ): 11% | activity at 50 µM ([5]; PA14, read-out: % Production HHQ): 2% | activity at 50 µM ([5]; PA14, read-out: % Production HQNO): 14% | activity at 50 µM ([5]; PA14, read-out: % Production PQS): 8% | inhibition at 50 µM ([5]; PA14, read-out: HHQ production inhibition): 89 to 99% | inhibition at 50 µM ([5]; PA14, read-out: HQNO production inhibition): 40 to 92% | inhibition at 50 µM ([5]; PA14, read-out: PQS production inhibition): 76 to 97% | inhibition at 50 µM ([5]; PA14, read-out: inhibition of 2-AA production): 82 to 95% | inhibition at 50 µM ([5]; PA14, read-out: inhibition of DHQ production): 82 to 96% | inhibition at 10 µM (PA14 AT/P cells): ≥ 76% | solubility at 4 h [6]: 1.5e-05 M (≈ 5.37 µg/mL) | activity at 50 µM ([7]; PA14, read-out: % Production pqsA-GFP): 8% | IC50 ([7]; PA14, read-out: IC50 pqsA-GFP expression, PA14, 13 concentrations): 0.92 µM
